Each structure is given as a SMILES string.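 Each compound was tested at five concentrations against cells in 96-well plates for 48 hours. Abbreviation: GI50, concentration required for 50% inhibition of growth.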 Calls of active or inactive are those of the source. Cut-off read from the data, not from the text of the source: active = GI50 up to about 1.1 µM and inactive = higher. Bounds are passed on as bounds.

Common to all, as to assay: inhibition of tumour cell growth, NCI panel, 48 h
Assay [1] concerns EKVX.
Assay [2] relates to LOX IMVI.
Assay [3] has as its system HCT-15.
The subject of assay [4] is SR.
Assay [5] relates to NCI-H460.
The subject of assay [6] is HOP-92.
Assay [7] has as its system UO-31.
The test system of assay [8] is MDA-MB-231.
Assay [9] has as its system ACHN.
Assay [10] relates to KM12.
The test system of assay [11] is MCF7.
Assay [12] deals with K562.
The subject of assay [13] is SNB-19.
In assay [14] the test system is RPMI-8226.
Assay [15] has as its system BT-549.
Assay [16] has as its system OVCAR-5.
Assay [17] has as its system SF-539.
In assay [18] the test system is HT-29.
Assay [19] has as its system IGROV-1.
The test system of assay [20] is SF-295.

On to `c1ccc2cc(CNCCCCNCCCNCc3ccc4ccccc4c3)ccc2c1`, for which the GI50 was 1.57 µM (inactive) in assay [1]; 0.202 µM (active) in assay [2]; 0.824 µM in assay [3]; 0.351 µM (active) in assay [4]; 0.188 µM (active) in assay [5]; 1.56 µM (inactive) in assay [6]. Further, the GI50 is 1.42 µM (inactive) in [7]; 1.82 µM (inactive) in assay [8]; 1.42 µM (inactive) in [9]; 0.403 µM (active) in assay [10]; 0.548 µM (active) in assay [11]; 0.259 µM (active) in assay [12]. Also, the GI50 in [13] was 1.43 µM (inactive); in assay [14], 0.226 µM (active); in [15] it was 1.78 µM (inactive); in assay [16], 1.87 µM (inactive); in assay [17], 1.69 µM (inactive); in assay [18] it was 0.229 µM (active). The GI50 in assay [19] was 0.585 µM (active); in assay [20], 1.5 µM (inactive).

Consider `Cc1nc(Nc2ccccc2Cl)sc1C(=O)CC(=O)C(=O)Nc1c(Cl)cccc1Cl`, for which the GI50 in [1] is 17.9 µM (inactive); in [2] it was 27.4 µM (inactive); in assay [3], 33.3 µM; in [4], 31.2 µM (inactive); in assay [5], 34.5 µM (inactive); in assay [6], 20.6 µM (inactive). Moreover, the GI50 in [7] is 23 µM (inactive); in assay [8], 13.6 µM (inactive); in [9], 45 µM (inactive); in assay [10], 25.4 µM (inactive); in assay [11], 28.2 µM (inactive); in assay [12], 41.8 µM (inactive). The GI50 in assay [13] is 63.8 µM (inactive); in assay [14] it was 28.2 µM (inactive); in assay [15], 24.2 µM (inactive); in [16], 24.9 µM (inactive); in [17] it was 26.9 µM (inactive); in assay [18], 25.4 µM (inactive). Moreover, the GI50 in assay [19] was 15.8 µM (inactive); in assay [20], 27.5 µM (inactive).

On to `C1=CC2C=CC(C=C1)P2c1ccccc1` (stereo not given), for which the GI50 in [1] is > 100 µM (inactive); in assay [2], > 100 µM (inactive); in assay [3] it was above 100 µM; in [4], > 100 µM (inactive); in assay [5] it was > 100 µM (inactive); in assay [6] it was > 100 µM (inactive). Moreover, the GI50 in assay [7], in assay [8], in assay [9], in [10], in [11] and in assay [12] was > 100 µM (inactive) in each case. The GI50 in assay [13], in [14], in assay [15], in assay [16], in [17] and in assay [18] was > 100 µM (inactive) throughout. The GI50 in assay [19] and in assay [20] was > 100 µM (inactive) each time.

With `COc1ccc(C(C)NNC(=O)c2ccncc2)c(OC)c1` (stereo not given), the GI50 in assay [1] is > 100 µM (inactive); in assay [2] it was > 100 µM (inactive); in assay [3], above 100 µM; in assay [4], > 100 µM (inactive); in [5] it was > 100 µM (inactive); in assay [6], > 100 µM (inactive). Further, the GI50 was > 100 µM (inactive) in [7]; > 100 µM (inactive) in assay [8]; > 100 µM (inactive) in assay [9]; > 100 µM (inactive) in [10]; > 100 µM (inactive) in [11]; 93.1 µM (inactive) in [12]. Moreover, the GI50 in assay [13], in [14], in assay [15], in [16], in [17] and in [18] was > 100 µM (inactive) each time. Besides, the GI50 in assay [19] and in assay [20] was > 100 µM (inactive) in each case.

The record behind these values is ChEMBL document CHEMBL1201862, “PubChem BioAssay data set” (2004).
